Literature values, collected in paper PMC4559881 (Molecular Neurodegeneration, 2015).
Like-named read-outs stand apart in the source and are kept apart here.

What was measured:
[1] = cited from earlier work
brain Aβ = system: brain Aβ; set-up: method as in PMID 22090477; conditions: PDAPP mice, doses ≥ 30 mg/kg p.o.; cited from earlier work
CSF Aβ [2] = system: CSF Aβ; set-up: method as in PMID 22090477; conditions: dogs, oral dose of 5 mg/kg; cited from earlier work
CSF Aβ [3] = system: CSF Aβ; set-up: method as in PMID 22090477; conditions: healthy volunteers, cited from earlier work
[4] = human, in vivo; cited from earlier work
deposited Aβ = system: deposited Aβ; set-up: method as in PMID 25164658; conditions: APP London mice, 4 months of dosing, 30 mg/kg; cited from earlier work

For `CC1(C#Cc2cnc3c(c2)[C@]2(COC(N)=N2)c2cc(-c4cccnc4F)ccc2O3)COC1` [AMG-8718], the “toxicity finding in rats” value ([1]; high doses) is given as “retinal toxicity”.

For `C[C@@]1(c2cc(-c3cncnc3)c(F)cc2F)CCSC(N)=N1` [LY2811376], the “toxicity finding in rats” value [1] is listed as “neuronal lipofuscinosis and degeneration”, the “reduction of brain Aβ” value (brain Aβ) is listed as over 60% and the “reduction of CSF Aβ” value (CSF Aβ [2]) is listed as “approximately 70%”. For the same molecule, the “change of CSF Aβ” value (CSF Aβ [3]; oral dose 30 mg) was -20% and the “change of CSF Aβ” value (CSF Aβ [3]; oral dose 90 mg) was -54%.

For `NC1=N[C@@]2(c3cc(NC(=O)c4ccc(F)cn4)ccc3F)COC[C@H]2CS1` [LY2886721], the “liver finding in AD patients” value [4] is given as “elevation of liver enzymes”.

In the case of `C[C@]1(c2cc(NC(=O)c3ccc(C#N)cn3)ccc2F)N=C(N)OCC1(F)F` [RO5508887], the “reduction of total deposited Aβ40” value (deposited Aβ) is given as 28% and the “reduction of total deposited Aβ42” value (deposited Aβ) is given as 45%.
